Test results: patent US20230192691A1, “HETEROCYCLIC COMPOUNDS AS BTK INHIBITORS” (Beijing InnoCare Pharma Tech Co., Ltd., priority 2020, published 2023)

Key:
[1] = biological target: T1, human-derived recombinant BTK protein (Homo sapiens, UniProt Q06187); assay: BTK activity inhibition assay (HTRF in vitro kinase assay); assay type: biochemical; settings: 40 μM ATP, 0.2 ng/μL BTK
T1 construct: purchased Carna Biosciences 08-180
Experimental: In vitro kinase assay was used to evaluate the effects of compounds of the present invention on BTK activity (Table 1).
(§1) By using the homogeneous time-resolved fluorescence (HTRF) kinase detection kit (Cisbio, catalog number 62TK0PEC), the enzymatic activity of BTK is determined by detecting the phosphorylation level of the substrate in the kinase reaction. The reaction buffer contains the enzyme reaction buffer (1×) from the kit, 5 mM MgCl2, 1 mM DTT, 10 nM SEB and 0.01% Tween-20; the kinase reaction solution contains human-derived recombinant BTK protein (Carna Biosciences, Catalog No. 08-180) diluted to 0.2 ng/μL with the reaction buffer; the substrate reaction solution contains biotin-labeled tyrosine kinase substrate diluted to 0.5 μM with the reaction buffer and 40 μM ATP; the detection buffer contains Eu^3+-labeled cage antibody diluted to 0.05 ng/μL and streptavidin-labeled XL665 antibody diluted to 31.25 nM with the reaction buffer; the test compound is dissolved and diluted to 100 μM with DMSO, followed by a 4-fold serial dilution with DMSO to the lowest concentration of 6.1 nM and finally 40-time dilution with the reaction buffer for each concentration point. If the IC50 value of the compound is very low, the initial concentration of the compound is reduced.
(§2) Add 4 μL test compound solution and 2 μL kinase reaction solution to a 384-well detection plate (Corning, catalog number 3674), mix well and incubate at room temperature for 15 minutes; add 4 μL substrate reaction solution and incubate for 50 minutes; add 10 μL detection buffer, mix well and stand for 60 minutes; detect signal at 620 nm and 665 nm using an Envision plate reader (Perkin Elmer). The signal value (absorbance at 665 nm/absorbance at 620 nm) is positively correlated with the degree of phosphorylation of the substrate, thereby detecting the kinase activity of BTK. In this experiment, the group without BTK is the negative control (100% inhibition) and the group with BTK but no compound is the positive control (0% inhibition). The inhibition curve is plotted and the corresponding IC50 value of the test compound is calculated using XLfit software (ID Business Solutions Ltd., UK).

[2] = biological target: T2, human recombinant BTK C481S protein (Homo sapiens, UniProt Q06187, C481S); assay: BTK C481S activity inhibition assay (HTRF in vitro kinase assay); assay type: biochemical; settings: 35 μM ATP, 1.5 ng/μL BTK C481S
T2 construct: made in house
T2 sequence (Q06187 whole entry C481S): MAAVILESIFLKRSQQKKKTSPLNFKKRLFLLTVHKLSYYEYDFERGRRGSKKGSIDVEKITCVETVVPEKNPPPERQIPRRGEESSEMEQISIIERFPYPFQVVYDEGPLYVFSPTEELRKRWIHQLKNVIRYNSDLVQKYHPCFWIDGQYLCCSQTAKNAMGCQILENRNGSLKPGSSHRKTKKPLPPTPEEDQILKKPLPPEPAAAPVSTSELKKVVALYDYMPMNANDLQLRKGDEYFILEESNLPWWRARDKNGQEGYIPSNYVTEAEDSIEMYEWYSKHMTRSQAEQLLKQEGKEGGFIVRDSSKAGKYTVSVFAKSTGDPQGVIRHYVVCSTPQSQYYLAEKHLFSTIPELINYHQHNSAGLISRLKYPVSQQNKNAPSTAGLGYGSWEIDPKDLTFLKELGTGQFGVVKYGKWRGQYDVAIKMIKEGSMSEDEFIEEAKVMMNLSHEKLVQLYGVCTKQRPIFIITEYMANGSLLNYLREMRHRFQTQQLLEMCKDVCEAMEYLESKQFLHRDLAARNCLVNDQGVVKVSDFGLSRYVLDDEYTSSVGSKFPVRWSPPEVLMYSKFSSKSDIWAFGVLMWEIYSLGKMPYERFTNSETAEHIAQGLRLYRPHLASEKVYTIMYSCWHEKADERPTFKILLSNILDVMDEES
Experimental: In vitro kinase assay was used to evaluate the effects of compounds of the present invention on BTK C481S activity (Table 1).
as §1, with “BTK C481S” for “BTK”, “nM SEB,” for “nM SEB”, “contains human” for “contains human-derived”, “protein (purified in-house)” for “protein (Carna Biosciences, Catalog No. 08-180)”, “to 1.5” for “to 0.2”, “and 35” for “and 40”
as §2, with “activity of BTK C481S. In this” for “activity of BTK. In this”, “with BTK C481 S but no” for “with BTK but no”, “XLfit software (TD Business Solutions” for “XLfit software (ID Business Solutions”

T1 sequence (Q06187 whole entry): as the sequence (Q06187 whole entry C481S) above, with S481C counted along it

| Structure (SMILES) | IC50 [1] [nM] | IC50 [2] [nM] |
| --- | --- | --- |
| COc1ccc(F)cc1C(=O)NCc1ccc(-c2nc([C@]3(C)CC[C@@](C)(C(=O)O)CC3)n3ccnc(N)c23)cc1 [Compound 32, (1r,4r)-4-(8-amino-1-(4-((5-fluoro-2-methoxybenzamido)methyl)phenyl)imidazo[1,5-a]pyrazin-3-yl)-1,4-dimethylcyclohexane-1-carboxylic acid] | 2.4 | 6.3 |
| COc1ccc(F)cc1C(=O)NCc1ccc(-n2c(=O)n(C3CCOCC3)c3ncnc(N)c32)cc1 [Compound 51, N-(4-(6-amino-8-oxo-9-(tetrahydro-2H-pyran-4-yl)-8,9-dihydro-7H-purin-7-yl)benzyl)-5-fluoro-2-methoxybenzamide] | 4 | 9.2 |
| COc1ccc(F)cc1C(=O)NCc1ccc(-c2nc(N3CCC(CO)CC3)n3ccnc(N)c23)cc1 [Compound 6, N-(4-(8-amino-3-(4-(hydroxymethyl)piperidin-1-yl)imidazo[1,5-a]pyrazin-1-yl)benzyl)-5-fluoro-2-methoxybenzamide] | 4.6 | 3.3 |
| COc1ccc(F)cc1C(=O)NCc1ccc(-n2c(=O)n(C(C)C(F)(F)F)c3ncnc(N)c32)cc1 (stereo not drawn) [Compound 53, N-(4-(6-amino-8-oxo-9-(1,1,1-trifluoropropan-2-yl)-8,9-dihydro-7H-purin-7-yl)benzyl)-5-fluoro-2-methoxybenzamide] | 5.6 | 21 |
| COc1ccc(F)cc1C(=O)NCc1ccc(-n2c(=O)n(C3CCOCC3)c3ccnc(N)c32)cc1 [Compound 52, N-(4-(4-amino-2-oxo-1-(tetrahydro-2H-pyran-4-yl)-1,2-dihydro-3H-imidazo[4,5-c]pyridin-3-yl)benzyl)-5-fluoro-2-methoxybenzamide] | 7.2 | 30 |
| COc1ccc(F)cc1C(=O)NCc1ccc(-c2nn([C@H]3CC[C@H](O)CC3)c3ccnc(N)c23)cc1 [Compound 4, N-(4-(4-amino-1-((1r,4r)-4-hydroxycyclohexyl)-1H-pyrazolo[4,3-c]pyridin-3-yl)benzyl)-5-fluoro-2-methoxybenzamide] | 2.3 | 3 |
| COc1ccc(F)cc1C(=O)NCc1ccc(-c2nc([C@]3(C)CC[C@@](C)(C(=O)O)CC3)n3ncnc(N)c23)cc1 [Compound 47, (1r,4r)-4-(4-amino-5-(4-((5-fluoro-2-methoxybenzamido)methyl)phenyl)imidazo[5,1-f][1,2,4]triazin-7-yl)-1,4-dimethylcyclohexane-1-carboxylic acid] | 1.3 | 1.4 |
| COc1ccc(F)cc1C(=O)NCc1ccc(-c2nn([C@H]3CC[C@@H](O)CC3)c3ccnc(N)c23)cc1 [Compound 3, N-(4-(4-amino-1-((1s,4s)-4-hydroxycyclohexyl)-1H-pyrazolo[4,3-c]pyridin-3-yl)benzyl)-5-fluoro-2-methoxybenzamide] | 3.2 | 4.6 |
| COc1ccc(F)cc1C(=O)NCc1ccc(-c2nc([C@H]3CC[C@H](CO)CC3)n3ncnc(N)c23)cc1 [Compound 14, N-(4-(4-amino-7-((1r,4r)-4-(hydroxymethyl)cyclohexyl)imidazo[5,1-f][1,2,4]triazin-5-yl)benzyl)-5-fluoro-2-methoxybenzamide] | 3.2 | 2.9 |
| COc1ccc(F)cc1C(=O)NCc1ccc(-c2nc(C3CCCC3)n3ncnc(N)c23)cc1 [Compound 12, N-(4-(4-amino-7-cyclopentylimidazo[5,1-f][1,2,4]triazin-5-yl)benzyl)-5-fluoro-2-methoxybenzamide] | 3 | – |
| COc1ccc(F)cc1C(=O)NCc1ccc(-c2nc(C34CCC(C(=O)N5CCOCC5)(CC3)CC4)n3ccnc(N)c23)cc1 [Compound 37, N-(4-(8-amino-3-(4-(morpholine-4-carbonyl)bicyclo[2.2.2]octan-1-yl)imidazo[1,5-a]pyrazin-1-yl)benzyl)-5-fluoro-2-methoxybenzamide] | 1.3 | 1.9 |
| COc1ccc(F)cc1C(=O)NCc1ccc(-n2c(=O)n(C34CCC(C(=O)N5CCOCC5)(CC3)CC4)c3ncnc(N)c32)cc1 [Compound 54, N-(4-(6-amino-9-(4-(morpholine-4-carbonyl)bicyclo[2.2.2]octan-1-yl)-8-oxo-8,9-dihydro-7H-purin-7-yl)benzyl)-5-fluoro-2-methoxybenzamide] | 5.8 | 6.1 |
| COc1ccc(F)cc1C(=O)NCc1ccc(-c2nc([C@H]3CC[C@H](CN)CC3)n3ccnc(N)c23)cc1 [Compound 7, N-(4-(8-amino-3-((1r,4r)-4-(aminomethyl)cyclohexyl)imidazo[1,5-a]pyrazin-1-yl)benzyl)-5-fluoro-2-methoxybenzamide] | 3.4 | 1.7 |
| Nc1nccn2c(C3CCC(CO)OC3)nc(-c3ccc(CNC(=O)c4ccccn4)cc3)c12 (stereo not drawn) [Compound 9, N-(4-(8-amino-3-(6-(hydroxymethyl)tetrahydro-2H-pyran-3-yl)imidazo[1,5-a]pyrazin-1-yl)benzyl)picolinamide] | 718 | 498 |

Now those with a lower IC50 [1], led by results:

| IC50 [1] [nM] | IC50 [2] [nM] | Structure (SMILES) |
| --- | --- | --- |
| 1.2 | 0.8 | COc1ccc(F)cc1C(=O)NCc1ccc(-c2nc(C3CCC(CO)OC3)n3ccnc(N)c23)cc1 (stereo not drawn) [Compound 8, N-(4-(8-amino-3-(6-(hydroxymethyl)tetrahydro-2H-pyran-3-yl)imidazo[1,5-a]pyrazin-1-yl)benzyl)-5-fluoro-2-methoxybenzamide] |
| 1.2 | 8.2 | COc1ccc(F)cc1C(=O)NCc1ccc(-n2c(=O)n(C34CCC(C(=O)O)(CC3)CC4)c3ncnc(N)c32)cc1 [Compound 48, 4-(6-amino-7-(4-((5-fluoro-2-methoxybenzamido)methyl)phenyl)-8-oxo-7,8-dihydro-9H-purin-9-yl)bicyclo[2.2.2]octane-1-carboxylic acid] |
| 0.8 | 1.8 | COC(=O)C12CCC(c3nc(-c4ccc(CNC(=O)c5cc(F)ccc5OC)cc4)c4c(N)nccn34)(CC1)CC2 [Compound 33, methyl 4-(8-amino-1-(4-((5-fluoro-2-methoxybenzamido)methyl)phenyl)imidazo[1,5-a]pyrazin-3-yl)bicyclo[2.2.2]octane-1-carboxylate] |
| 0.7 | 0.8 | [2H]C([2H])([2H])Oc1ccc(F)cc1C(=O)NCc1ccc(-c2nc([C@H]3CC[C@H](CO)CC3)n3ncnc(N)c23)cc1 [Compound 18, N-(4-(4-amino-7-((1r,4r)-4-(hydroxymethyl)cyclohexyl)imidazo[5,1-f][1,2,4]triazin-5-yl)benzyl)-5-fluoro-2-(methoxy-d3)benzamide] |
| 0.6 | 3 | COc1ccc(F)cc1C(=O)NCc1ccc(-c2nc(C34CC(C(=O)O)(C3)C4)n3ncnc(N)c23)cc1 [Compound 31, 3-(4-amino-5-(4-((5-fluoro-2-methoxybenzamido)methyl)phenyl)imidazo[5,1-f][1,2,4]triazin-7-yl)bicyclo[1.1.1]pentane-1-carboxylic acid] |
| 0.4 | 1.1 | COc1ccc(F)cc1C(=O)NCc1ccc(-c2nc(C34CCC(C(=O)O)(CC3)C4)n3ccnc(N)c23)cc1 [Compound 40, 4-(8-amino-1-(4-((5-fluoro-2-methoxybenzamido)methyl)phenyl)imidazo[1,5-a]pyrazin-3-yl)bicyclo[2.2.1]heptane-1-carboxylic acid] |
